Literature values in patent US20110223244A1, “ALCOHOL RESISTANT ENTERIC PHARMACEUTICAL COMPOSITIONS” (priority 2010, published 2011).
Structures can show the parent of a compound that is named as a salt.

Conditions: yields 1-(2-thienyl)carbinol, naphthol and substituted naphthols

CNCC[C@H](Oc1cccc2ccccc12)c1cccs1 [duloxetine HCl]
stability in aqueous HCl: rapidly undergoes solvolysis and rearrangement
